Results: the kinase profiling compilation of Christmann-Franck et al. (2016)
Where “and” joins values, the source holds several entries; their conditions need not be identical. Equal entries are not always repeated.

What was measured:
Experiment in all cases: radiometric filter-binding kinase assay, Kinase HotSpot
Settings in all cases: compound 0.5 µM; ATP 10 µM
SYK (human) = SYK (human) (UniProt P43405)
EPHA7 (human) = EPHA7 (human) (UniProt Q15375)
DSTYK (human) = DSTYK (human) (UniProt Q6XUX3)
PAK7 (human) = PAK7 (human) (UniProt Q9P286)
MKNK2 (human) = MKNK2 (human) (UniProt Q9HBH9)
HIPK3 (human) = HIPK3 (human) (UniProt Q9H422)
MAP3K2 (human) = MAP3K2 (human) (UniProt Q9Y2U5)
ULK2 (human) = ULK2 (human) (UniProt Q8IYT8)
CLK3 (human) = CLK3 (human) (UniProt P49761)
MINK1 (human) = MINK1 (human) (UniProt Q8N4C8)
NEK6 (human) = NEK6 (human) (UniProt Q9HC98)
PRKG1 (human) = PRKG1 (human) (UniProt Q13976)
PKN1 (human) = PKN1 (human) (UniProt Q16512)
FES (human) = FES (human) (UniProt P07332)
IRAK4 (human) = IRAK4 (human) (UniProt Q9NWZ3)
MLTK (human) = MLTK (human) (UniProt Q9NYL2)
ABL2 (human) = ABL2 (human) (UniProt P42684)
ABL1 (human) = ABL1 (human) (UniProt P00519)
CAMKK2 (human) = CAMKK2 (human) (UniProt Q96RR4)
PHKG2 (human) = PHKG2 (human) (UniProt P15735)
CSK (human) = CSK (human) (UniProt P41240)
IGF1R (human) = IGF1R (human) (UniProt P08069)
JAK2 JH1 JH2 (human) = JAK2 JH1 JH2 (human) (UniProt O60674)
INSRR (human) = INSRR (human) (UniProt P14616)
DYRK1B (human) = DYRK1B (human) (UniProt Q9Y463)
MARK3 (human) = MARK3 (human) (UniProt P27448)
PRKCA (human) = PRKCA (human) (UniProt P17252)
BRSK1 (human) = BRSK1 (human) (UniProt Q8TDC3)
CSNK1D (human) = CSNK1D (human) (UniProt P48730)
SRPK3 (human) = SRPK3 (human) (UniProt Q9UPE1)
ERBB2 (human) = ERBB2 (human) (UniProt P04626)
CDK9 CCNK (human) = CDK9 CCNK (human) (UniProt O75909+P50750)
PRKX (human) = PRKX (human) (UniProt P51817)
CSNK1E (human) = CSNK1E (human) (UniProt P49674)
NLK (human) = NLK (human) (UniProt Q9UBE8)
MAPK9 (human) = MAPK9 (human) (UniProt P45984)
FLT1 (human) = FLT1 (human) (UniProt P17948)
MST4 (human) = MST4 (human) (UniProt Q9P289)
MAPKAPK3 (human) = MAPKAPK3 (human) (UniProt Q16644)
EPHB2 (human) = EPHB2 (human) (UniProt P29323)
MAP3K14 (human) = MAP3K14 (human) (UniProt Q99558)
CDK5 CDK5R1 p25 (human) = CDK5 CDK5R1 p25 (human) (UniProt Q00535+Q15078)

DSTYK (human), sequence (Q6XUX3 whole entry, looked up): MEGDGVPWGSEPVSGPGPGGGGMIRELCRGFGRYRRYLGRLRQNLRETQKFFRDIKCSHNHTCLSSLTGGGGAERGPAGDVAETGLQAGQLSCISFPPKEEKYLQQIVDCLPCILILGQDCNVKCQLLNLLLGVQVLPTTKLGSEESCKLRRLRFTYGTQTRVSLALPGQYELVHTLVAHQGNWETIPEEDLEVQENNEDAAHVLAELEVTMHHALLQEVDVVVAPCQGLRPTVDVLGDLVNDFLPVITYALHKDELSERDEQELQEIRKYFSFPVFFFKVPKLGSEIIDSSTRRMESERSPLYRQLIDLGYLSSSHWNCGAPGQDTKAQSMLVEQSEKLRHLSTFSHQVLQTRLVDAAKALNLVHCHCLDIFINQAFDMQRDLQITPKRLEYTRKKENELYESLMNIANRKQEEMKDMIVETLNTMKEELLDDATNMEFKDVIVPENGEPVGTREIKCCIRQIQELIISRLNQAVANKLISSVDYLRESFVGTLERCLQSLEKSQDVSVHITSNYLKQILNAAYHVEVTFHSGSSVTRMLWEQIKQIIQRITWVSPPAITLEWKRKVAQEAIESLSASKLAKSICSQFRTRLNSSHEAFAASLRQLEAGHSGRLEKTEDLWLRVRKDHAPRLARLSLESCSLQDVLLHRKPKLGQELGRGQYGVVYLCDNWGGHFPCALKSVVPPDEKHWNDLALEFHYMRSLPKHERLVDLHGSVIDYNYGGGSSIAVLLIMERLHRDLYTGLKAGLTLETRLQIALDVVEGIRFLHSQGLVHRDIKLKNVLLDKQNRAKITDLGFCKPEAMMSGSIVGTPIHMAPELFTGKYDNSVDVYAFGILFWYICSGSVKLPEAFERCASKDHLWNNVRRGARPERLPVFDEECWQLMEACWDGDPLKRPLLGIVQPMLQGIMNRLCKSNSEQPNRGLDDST
MARK3 (human), sequence (P27448 whole entry, looked up): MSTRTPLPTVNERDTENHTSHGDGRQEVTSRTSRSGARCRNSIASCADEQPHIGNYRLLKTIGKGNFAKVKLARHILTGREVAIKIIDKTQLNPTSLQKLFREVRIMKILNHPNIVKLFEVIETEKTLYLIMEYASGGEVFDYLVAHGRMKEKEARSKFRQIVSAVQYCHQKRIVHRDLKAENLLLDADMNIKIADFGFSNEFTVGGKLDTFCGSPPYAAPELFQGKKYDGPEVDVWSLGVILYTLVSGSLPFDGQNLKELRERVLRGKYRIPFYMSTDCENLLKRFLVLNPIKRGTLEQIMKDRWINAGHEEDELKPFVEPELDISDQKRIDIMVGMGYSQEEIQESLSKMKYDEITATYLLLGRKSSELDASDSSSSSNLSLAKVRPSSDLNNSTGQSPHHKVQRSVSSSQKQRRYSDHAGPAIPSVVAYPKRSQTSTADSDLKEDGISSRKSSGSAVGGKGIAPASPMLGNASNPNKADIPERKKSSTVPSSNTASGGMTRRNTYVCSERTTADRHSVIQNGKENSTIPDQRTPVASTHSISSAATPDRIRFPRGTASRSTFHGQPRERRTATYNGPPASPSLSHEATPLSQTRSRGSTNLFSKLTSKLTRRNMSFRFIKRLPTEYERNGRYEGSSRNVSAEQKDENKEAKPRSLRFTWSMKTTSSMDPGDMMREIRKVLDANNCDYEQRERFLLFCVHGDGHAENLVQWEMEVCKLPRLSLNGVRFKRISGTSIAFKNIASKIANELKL
CSNK1D (human), sequence (P48730 whole entry, looked up): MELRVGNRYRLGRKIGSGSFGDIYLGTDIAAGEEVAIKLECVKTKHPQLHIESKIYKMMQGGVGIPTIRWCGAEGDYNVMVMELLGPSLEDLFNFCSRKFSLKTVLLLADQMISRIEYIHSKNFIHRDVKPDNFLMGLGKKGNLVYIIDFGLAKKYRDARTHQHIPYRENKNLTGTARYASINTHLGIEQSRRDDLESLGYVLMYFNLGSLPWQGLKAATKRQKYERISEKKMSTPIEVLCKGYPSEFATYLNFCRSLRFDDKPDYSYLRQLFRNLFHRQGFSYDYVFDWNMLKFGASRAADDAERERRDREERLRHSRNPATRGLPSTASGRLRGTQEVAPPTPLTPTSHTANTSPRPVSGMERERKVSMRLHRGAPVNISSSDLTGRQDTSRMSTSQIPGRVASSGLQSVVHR
HIPK3 (human), sequence (Q9H422 whole entry, looked up): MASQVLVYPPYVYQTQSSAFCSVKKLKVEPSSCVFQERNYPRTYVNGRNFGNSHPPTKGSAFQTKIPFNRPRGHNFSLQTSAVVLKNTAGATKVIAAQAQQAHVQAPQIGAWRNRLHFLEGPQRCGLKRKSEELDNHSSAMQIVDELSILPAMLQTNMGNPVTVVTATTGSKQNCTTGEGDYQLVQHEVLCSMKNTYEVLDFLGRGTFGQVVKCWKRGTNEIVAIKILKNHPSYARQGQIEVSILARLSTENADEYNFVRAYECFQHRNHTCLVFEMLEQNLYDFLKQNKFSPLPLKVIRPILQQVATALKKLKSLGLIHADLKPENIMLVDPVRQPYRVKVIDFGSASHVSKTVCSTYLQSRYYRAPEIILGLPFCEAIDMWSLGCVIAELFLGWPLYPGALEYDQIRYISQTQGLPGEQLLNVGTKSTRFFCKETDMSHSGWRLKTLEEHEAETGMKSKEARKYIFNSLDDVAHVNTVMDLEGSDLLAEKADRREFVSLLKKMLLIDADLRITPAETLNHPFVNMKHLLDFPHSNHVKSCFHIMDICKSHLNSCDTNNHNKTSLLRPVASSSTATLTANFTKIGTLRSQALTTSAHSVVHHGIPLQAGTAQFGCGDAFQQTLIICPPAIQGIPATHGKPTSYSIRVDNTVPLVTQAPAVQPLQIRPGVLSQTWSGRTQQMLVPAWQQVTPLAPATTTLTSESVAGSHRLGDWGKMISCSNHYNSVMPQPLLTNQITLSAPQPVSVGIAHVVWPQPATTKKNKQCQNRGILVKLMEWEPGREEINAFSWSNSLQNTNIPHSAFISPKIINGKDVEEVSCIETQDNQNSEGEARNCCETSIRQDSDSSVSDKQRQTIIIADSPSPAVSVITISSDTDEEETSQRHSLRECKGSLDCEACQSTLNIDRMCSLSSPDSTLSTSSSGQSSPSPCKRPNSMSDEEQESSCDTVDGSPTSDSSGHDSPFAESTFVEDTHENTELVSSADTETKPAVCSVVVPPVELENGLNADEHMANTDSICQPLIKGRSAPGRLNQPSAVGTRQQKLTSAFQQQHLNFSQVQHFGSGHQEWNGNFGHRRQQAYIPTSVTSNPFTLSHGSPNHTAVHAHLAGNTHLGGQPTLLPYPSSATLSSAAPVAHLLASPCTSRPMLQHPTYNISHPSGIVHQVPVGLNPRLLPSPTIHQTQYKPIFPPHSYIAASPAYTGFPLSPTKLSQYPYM
SRPK3 (human), sequence (Q9UPE1 whole entry, looked up): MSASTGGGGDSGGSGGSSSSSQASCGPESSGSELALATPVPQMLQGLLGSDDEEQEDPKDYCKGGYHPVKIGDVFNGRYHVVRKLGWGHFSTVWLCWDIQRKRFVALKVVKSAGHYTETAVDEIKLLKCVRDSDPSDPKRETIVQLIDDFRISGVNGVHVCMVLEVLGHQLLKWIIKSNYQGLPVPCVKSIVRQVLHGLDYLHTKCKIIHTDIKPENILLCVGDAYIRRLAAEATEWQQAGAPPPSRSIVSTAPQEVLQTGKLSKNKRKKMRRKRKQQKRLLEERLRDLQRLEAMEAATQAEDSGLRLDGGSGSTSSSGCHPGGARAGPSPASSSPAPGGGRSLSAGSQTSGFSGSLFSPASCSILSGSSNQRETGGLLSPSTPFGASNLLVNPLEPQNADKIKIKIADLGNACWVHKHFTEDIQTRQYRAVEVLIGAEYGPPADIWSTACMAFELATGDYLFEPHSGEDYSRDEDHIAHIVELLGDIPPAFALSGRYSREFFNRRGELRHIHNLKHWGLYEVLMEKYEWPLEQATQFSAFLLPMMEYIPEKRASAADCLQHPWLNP
FES (human), sequence (P07332 whole entry, looked up): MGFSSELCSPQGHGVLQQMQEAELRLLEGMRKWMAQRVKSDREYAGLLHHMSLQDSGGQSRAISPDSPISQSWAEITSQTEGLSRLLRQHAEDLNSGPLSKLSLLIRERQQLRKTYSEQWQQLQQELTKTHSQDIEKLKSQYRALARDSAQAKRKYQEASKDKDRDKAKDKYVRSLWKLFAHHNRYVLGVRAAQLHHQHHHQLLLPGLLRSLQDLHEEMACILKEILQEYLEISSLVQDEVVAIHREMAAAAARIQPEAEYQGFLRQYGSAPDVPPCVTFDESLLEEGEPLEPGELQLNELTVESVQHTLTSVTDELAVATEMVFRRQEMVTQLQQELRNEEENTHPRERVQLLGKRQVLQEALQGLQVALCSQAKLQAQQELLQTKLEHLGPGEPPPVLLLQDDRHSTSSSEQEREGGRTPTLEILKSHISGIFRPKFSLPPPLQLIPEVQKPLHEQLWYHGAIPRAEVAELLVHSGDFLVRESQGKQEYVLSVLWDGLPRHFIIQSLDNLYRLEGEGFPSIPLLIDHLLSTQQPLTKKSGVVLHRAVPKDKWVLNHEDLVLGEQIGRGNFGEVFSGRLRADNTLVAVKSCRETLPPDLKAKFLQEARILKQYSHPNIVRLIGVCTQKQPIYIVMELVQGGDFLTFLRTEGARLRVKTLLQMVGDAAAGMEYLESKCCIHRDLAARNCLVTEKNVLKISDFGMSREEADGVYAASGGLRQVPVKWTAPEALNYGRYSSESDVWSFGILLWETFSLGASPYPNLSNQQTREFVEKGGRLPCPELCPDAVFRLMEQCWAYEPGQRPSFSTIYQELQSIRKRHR
PRKX (human), sequence (P51817 whole entry, looked up): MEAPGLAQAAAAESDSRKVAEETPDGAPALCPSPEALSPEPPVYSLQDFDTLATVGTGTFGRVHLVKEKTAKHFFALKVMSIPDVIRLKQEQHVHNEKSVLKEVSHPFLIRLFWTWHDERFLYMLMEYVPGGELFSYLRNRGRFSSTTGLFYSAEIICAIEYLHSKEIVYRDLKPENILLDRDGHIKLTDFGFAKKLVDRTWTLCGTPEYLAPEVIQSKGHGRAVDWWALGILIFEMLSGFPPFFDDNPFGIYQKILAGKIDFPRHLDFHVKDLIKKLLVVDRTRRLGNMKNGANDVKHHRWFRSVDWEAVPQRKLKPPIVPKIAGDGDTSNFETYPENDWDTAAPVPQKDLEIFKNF

CCCCc1c(-c2ccc(O)cc2)[nH]c2nccnc12
residual activity (SYK (human)): 53.5%
residual activity (EPHA7 (human)): 89%
residual activity (DSTYK (human)): 88.9%
residual activity (PAK7 (human)): 82.9%
residual activity (MKNK2 (human)): 107%
residual activity (HIPK3 (human)): 100%
residual activity (MAP3K2 (human)): 77.2%
residual activity (ULK2 (human)): 112%
residual activity (CLK3 (human)): 121%
residual activity (MINK1 (human)): 82%
residual activity (NEK6 (human)): 123%
residual activity (PRKG1 (human)): 88.8% and 94.5%
residual activity (PKN1 (human)): 90.3%
residual activity (FES (human)): 64.5%
residual activity (IRAK4 (human)): 159%
residual activity (MLTK (human)): 71%
residual activity (ABL2 (human)): 64.9%
residual activity (ABL1 (human)): 79%
residual activity (CAMKK2 (human)): 91.7%
residual activity (PHKG2 (human)): 100%
residual activity (CSK (human)): 78.2%
residual activity (IGF1R (human)): 87.3%
residual activity (JAK2 JH1 JH2 (human)): 77.8%
residual activity (INSRR (human)): 86.6%
residual activity (DYRK1B (human)): 73.3%
residual activity (MARK3 (human)): 88.2%
residual activity (PRKCA (human)): 83.7%
residual activity (BRSK1 (human)): 89.1%
residual activity (CSNK1D (human)): 93.7%
residual activity (SRPK3 (human)): 98.6%
residual activity (ERBB2 (human)): 97.7%
residual activity (CDK9 CCNK (human)): 42.8%
residual activity (PRKX (human)): 110%
residual activity (CSNK1E (human)): 102%
residual activity (NLK (human)): 90.3%
residual activity (MAPK9 (human)): 90.2%
residual activity (FLT1 (human)): 86.3%
residual activity (MST4 (human)): 79.1%
residual activity (MAPKAPK3 (human)): 92.8%
residual activity (EPHB2 (human)): 92.3%
residual activity (MAP3K14 (human)): 95.4%

Cc1cc(Nc2nc(-c3ccccc3)nc3ccccc23)n[nH]1
residual activity (SYK (human)): 61.9%
residual activity (EPHA7 (human)): 72.5%
residual activity (DSTYK (human)): 86%
residual activity (CDK5 CDK5R1 p25 (human)): 98.7%
residual activity (PAK7 (human)): 53.1%
residual activity (MKNK2 (human)): 71.8%
residual activity (HIPK3 (human)): 88.5%
residual activity (MAP3K2 (human)): 78.4%
residual activity (ULK2 (human)): 95.1%
residual activity (CLK3 (human)): 33.8%
residual activity (MINK1 (human)): 35.6%
residual activity (NEK6 (human)): 93.9%
residual activity (PRKG1 (human)): 94.9% and 97.3%
residual activity (PKN1 (human)): 89.9%
residual activity (FES (human)): 94.7%
residual activity (IRAK4 (human)): 93.2%
residual activity (MLTK (human)): 87.1%
residual activity (ABL2 (human)): 42.5%
residual activity (ABL1 (human)): 75.4%
residual activity (CAMKK2 (human)): 88.6%
residual activity (PHKG2 (human)): 86.3%
residual activity (CSK (human)): 98.4%
residual activity (IGF1R (human)): 70.8%
residual activity (JAK2 JH1 JH2 (human)): 52.6%
residual activity (INSRR (human)): 20.7%
residual activity (DYRK1B (human)): 90.8%
residual activity (MARK3 (human)): 89%
residual activity (PRKCA (human)): 92.2%
residual activity (CSNK1D (human)): 96.7%
residual activity (SRPK3 (human)): 61.5%
residual activity (ERBB2 (human)): 108%
residual activity (CDK9 CCNK (human)): 89.8%
residual activity (PRKX (human)): 101%
residual activity (CSNK1E (human)): 97.4%
residual activity (NLK (human)): 94.7%
residual activity (MAPK9 (human)): 92.4%
residual activity (FLT1 (human)): 78.7%
residual activity (MST4 (human)): 91.2%
residual activity (MAPKAPK3 (human)): 81%
residual activity (EPHB2 (human)): 76.7%
residual activity (MAP3K14 (human)): 93.5%

COc1cc2c(N3CCN(C(=O)Nc4ccc(OC(C)C)cc4)CC3)ncnc2cc1OCCCN1CCCCC1
residual activity (SYK (human)): 102%
residual activity (EPHA7 (human)): 97.5%
residual activity (DSTYK (human)): 92.7%
residual activity (CDK5 CDK5R1 p25 (human)): 104%
residual activity (PAK7 (human)): 87.5%
residual activity (MKNK2 (human)): 99%
residual activity (HIPK3 (human)): 101%
residual activity (MAP3K2 (human)): 103%
residual activity (ULK2 (human)): 100%
residual activity (CLK3 (human)): 93.4%
residual activity (MINK1 (human)): 99%
residual activity (NEK6 (human)): 87.4%
residual activity (PRKG1 (human)): 102% and 82.5%
residual activity (PKN1 (human)): 108%
residual activity (FES (human)): 105%
residual activity (IRAK4 (human)): 96%
residual activity (MLTK (human)): 99.7%
residual activity (ABL1 (human)): 104%
residual activity (CAMKK2 (human)): 101%
residual activity (PHKG2 (human)): 98.9%
residual activity (CSK (human)): 99.3%
residual activity (IGF1R (human)): 97.7%
residual activity (JAK2 JH1 JH2 (human)): 101%
residual activity (INSRR (human)): 98.9%
residual activity (DYRK1B (human)): 97.9%
residual activity (MARK3 (human)): 103%
residual activity (PRKCA (human)): 109%
residual activity (BRSK1 (human)): 103%
residual activity (CSNK1D (human)): 90.9%
residual activity (SRPK3 (human)): 102%
residual activity (ERBB2 (human)): 104%
residual activity (CDK9 CCNK (human)): 107%
residual activity (PRKX (human)): 108%
residual activity (CSNK1E (human)): 99.1%
residual activity (NLK (human)): 105%
residual activity (MAPK9 (human)): 103%
residual activity (FLT1 (human)): 99.4%
residual activity (MST4 (human)): 101%
residual activity (MAPKAPK3 (human)): 103%
residual activity (EPHB2 (human)): 97.6%
residual activity (MAP3K14 (human)): 98.6%
